Measured values reported in patent publication US6489315B1, “Cyclic compounds, their production and use” (Takeda Chemical Industries, Ltd., priority 1995, dated 2002).

SMILES | melting point [°C]
CC1CCn2c(c(-c3ccccc3)c3cccnc3c2=O)C(=O)N(Cc2cc(C(F)(F)F)cc(C(F)(F)F)c2)C1 (racemic) [Example 15, (+/−)-7-[3,5-Bis(trifluoromethyl)benzyl]-6,7,8,9,10,11-hexahydro-9-methyl-6,13-dioxo-5-phenyl-13H-[1,4]diazocino[2,1-g][1,7]naphthyridine] | 257 to 258
Cc1ccc(-c2c3n(c(=O)c4ncccc24)CCC(C)CN(Cc2cc(C(F)(F)F)cc(C(F)(F)F)c2)C3=O)cc1 (racemic) [Example 16, (+/−)-7-[3,5-Bis(trifluoromethyl)benzyl]-6,7,8,9,10,11-hexahydro-9-methyl-5-(4-methylphenyl)-6,13-dioxo-13H-[1,4]diazocino[2,1-g][1,7]naphthyridine] | 280 to 281
Cc1ccc(-c2c3n(c(=O)c4ncccc24)CC(O)CN(Cc2cc(C(F)(F)F)cc(C(F)(F)F)c2)C3=O)cc1 (racemic) [Example 25, (+/−)-7-[3,5-Bis(trifluoromethyl)benzyl]-6,7,8,9,10,12-hexahydro-9-hydroxy-5-(4-methylphenyl)-6,12-dioxo[1,4]diazepino [2,1-g][1,7]naphthyridine] | 282 to 283
Cc1ccc(-c2c3n(c(=O)c4ncccc24)CCN(Cc2cc(C(F)(F)F)cc(C(F)(F)F)c2)C3=O)cc1 [Example 1, 7-[3,5-Bis(trifluoromethyl)benzyl]-6,7,8,9-tetrahydro-5-(4-methylphenyl)-6,11-dioxo-11H-pyrazino[2,1-g][1,7]naphthyridine] | 270 to 271
Cc1ccc(-c2c3n(c(=O)c4ncccc24)CCCN(Cc2cc(C(F)(F)F)cc(C(F)(F)F)c2)C3=O)cc1 [Example 2, 7-[3,5-Bis(trifluoromethyl)benzyl]-6,7,8,9,10,12-hexahydro-5-(4-methylphenyl)-6,12-dioxo[1,4]diazepino[2,1-g][1,7]naphthyridine] | 194 to 195
O=C1c2c(-c3ccccc3)ccnc2OCCN1Cc1cc(C(F)(F)F)cc(C(F)(F)F)c1 [Example 11, 4-[3,5-Bis(trifluoromethyl)benzyl]-2,3,4,5-tetrahydro-5-oxo-6-phenylpyrido[3,2-f][1,4]oxazepine] | 200 to 201
Cc1ccc(-c2c3n(c(=O)c4ncccc24)C[C@H](C)CN(Cc2cc(C(F)(F)F)cc(C(F)(F)F)c2)C3=O)cc1 [Example 12, (9R)-7-[3,5-Bis(trifluoromethyl)benzyl]-6,7,8,9,10,12-hexahydro-9-methyl-5-(4-methylphenyl)-6,12-dioxo[1,4]diazepino[2,1-g][1,7]naphthyridine] | 179 to 180
C[C@H]1CN(Cc2cc(C(F)(F)F)cc(C(F)(F)F)c2)C(=O)c2c(-c3ccccc3)c3cccnc3c(=O)n2C1 [Example 13, (9S)-7-[3,5-Bis(trifluoromethyl)benzyl]-6,7,8,9,10,12-hexahydro-9-methyl-6,12-dioxo-5-phenyl[1,4]diazepino[2,1-g][1,7]naphthyridine] | 150 to 152
Cc1ccc(-c2c3n(c(=O)c4ncccc24)C[C@@H](C)CN(Cc2cc(C(F)(F)F)cc(C(F)(F)F)c2)C3=O)cc1 [Example 14, (9S)-7-(3,5-Bis(trifluoromethyl)benzyl]-6,7,8,9,10,12-hexahydro-9-methyl-5-(4-methylphenyl)-6,12-dioxo[1,4]diazepino[2,1-g][1,7]naphthyridine] | 179 to 180
C[C@@H]1CCn2c(c(-c3ccccc3)c3cccnc3c2=O)C(=O)N(Cc2cc(C(F)(F)F)cc(C(F)(F)F)c2)C1 [Example 17, (9R)-7-[3,5-Bis(trifluoromethyl)benzyl]-6,7,8,9,10,11-hexahydro-9-methyl-6,13-dioxo-5-phenyl-13H-[1,4]diazocino[2,1-g][1,7]naphthyridine] | 245 to 247
Cc1ccc(-c2c3n(c(=O)c4ncccc24)CC[C@@H](C)CN(Cc2cc(C(F)(F)F)cc(C(F)(F)F)c2)C3=O)cc1 [Example 18, (9R)-7-[3,5-Bis(trifluoromethyl)benzyl]-6,7,8,9,10,11-hexahydro-9-methyl-5-(4-methylphenyl)-6,13-dioxo-13H-[1,4]diazocino[2,1-g][1,7]naphthyridine] | 226 to 228
C[C@H]1CCn2c(c(-c3ccccc3)c3cccnc3c2=O)C(=O)N(Cc2cc(C(F)(F)F)cc(C(F)(F)F)c2)C1 [Example 19, (9S)-7-[3,5-Bis(trifluoromethyl)benzyl]-6,7,8,9,10,11-hexahydro-9-methyl-6,13-dioxo-5-phenyl-13H-[1,4]diazocino[2,1-g][1,7]naphthyridine] | 242 to 244
Cc1ccc(-c2c3n(c(=O)c4ncccc24)CC[C@H](C)CN(Cc2cc(C(F)(F)F)cc(C(F)(F)F)c2)C3=O)cc1 [Example 20, (9S)-7-[3,5-Bis(trifluoromethyl)benzyl]-6,7,8,9,10,11-hexahydro-9-methyl-5-(4-methylphenyl)-6,13-dioxo-13H-[1,4]diazocino[2,1-g][1,7]naphthyridine] | 227 to 228
O=C1c2c(-c3ccccc3)ccnc2NCCN1Cc1cc(C(F)(F)F)cc(C(F)(F)F)c1 [Example 21, 4-[3,5-Bis(trifluoromethyl)benzyl]-2,3,4,5-tetrahydro-5-oxo-6-phenyl-1H-pyrido[2,3-e][1,4]diazepine] | 242 to 243
O=C1c2c(-c3ccccc3)ccnc2OCCCN1Cc1cc(C(F)(F)F)cc(C(F)(F)F)c1 [Example 22, 5-[3,5-Bis(trifluoromethyl)benzyl]-2,3,4,5-tetrahydro-6-oxo-7-phenyl-6H-pyrido(2,3-b)[1,5]oxazocine] | 188 to 189
Cc1cnc2c(c1-c1ccccc1)C(=O)N(Cc1cc(C(F)(F)F)cc(C(F)(F)F)c1)C[C@@H](C)CO2 [Example 32, (R)-5-[3,5-Bis(trifluoromethyl)benzyl]-2,3,4,5-tetrahydro-3,8-dimethyl-6-oxo-7-phenyl-6H-pyrido[2,3-b][1,5]oxazocine] | 147 to 149
Cc1cc(-c2ccccc2)c2c(n1)OCCN(Cc1cc(C(F)(F)F)cc(C(F)(F)F)c1)C2=O [Example 33, 4-[3,5-Bis(trifluoromethyl)benzyl)-2,3,4,5-tetrahydro-8-methyl-5-oxo-6-phenylpyrido[3,2-f][1,4]oxazepine] | 151 to 153
Cc1cc(-c2ccccc2)c2c(n1)OCCCN(Cc1cc(C(F)(F)F)cc(C(F)(F)F)c1)C2=O [Example 34, 5-[3,5-Bis(trifluoromethyl)benzyl]-2,3,4,5-tetrahydro-9-methyl-6-oxo-7-phenyl-6H-pyrido[2,3-b][1,5]oxazocine] | 164 to 165
Cc1cc(-c2ccccc2)c2c([n+]1[O-])OCCN(Cc1cc(C(F)(F)F)cc(C(F)(F)F)c1)C2=O [Example 35] | 181 to 183
CC(=O)OCc1cc(-c2ccccc2)c2c(n1)OCCN(Cc1cc(C(F)(F)F)cc(C(F)(F)F)c1)C2=O [Example 37, 8-Acetoxymethyl-4-[3,5-bis(trifluoromethyl)benzyl]-2,3,4,5-tetrahydro-5-oxo-6-phenylpyrido(3,2-f][1,4]oxazepine] | 122 to 124
CC(=O)OCc1cc(-c2ccccc2)c2c(n1)OCCCN(Cc1cc(C(F)(F)F)cc(C(F)(F)F)c1)C2=O [Example 38, 9-Acetoxymethyl-5-[3,5-bis(trifluoromethyl)benzyl]-2.3,4,5-tetrahydro-6-oxo-7-phenyl-6H-pyrido[2,3-b][1,5]oxazocine] | 156 to 157
O=C1c2c(-c3ccccc3)cc(CCl)nc2OCCN1Cc1cc(C(F)(F)F)cc(C(F)(F)F)c1 [Example 39, 4-[3,5-Bis(trifluoromethyl)benzyl]-8-chloromethyl-2,3,4,5-tetrahydro-5-oxo-6-phenylpyrido[3,2-f][1,4]oxazepine] | 183 to 184
COCc1cc(-c2ccccc2)c2c(n1)OCCN(Cc1cc(C(F)(F)F)cc(C(F)(F)F)c1)C2=O [Example 40, 4-[3,5-Bis(trifluoromethyl)benzyl]-2,3,4,5-tetrahydro-8-methoxymethyl-5-oxo-6-phenylpyrido[3,2-f][1,4]oxazepine] | 139 to 140
CSCc1cc(-c2ccccc2)c2c(n1)OCCN(Cc1cc(C(F)(F)F)cc(C(F)(F)F)c1)C2=O [Example 42, 4-[3,5-Bis(trifluoromethyl)benzyl]-2,3,4,5-tetrahydro-8-methylthiomethyl-5-oxo-6-phenylpyrido[3,2-f][1,4]oxazepine] | 165 to 166
NCc1cc(-c2ccccc2)c2c(n1)OCCN(Cc1cc(C(F)(F)F)cc(C(F)(F)F)c1)C2=O [Example 43, 8-Aminomethyl-4-[3,5-bis(trifluoromethyl)benzyl]-2,3,4,5-tetrahydro-5-oxo-6-phenylpyrido[3,2-f][1,4]oxazepine] | 188 to 191
CNCc1cc(-c2ccccc2)c2c(n1)OCCN(Cc1cc(C(F)(F)F)cc(C(F)(F)F)c1)C2=O [Example 44, 4-[3,5-Bis(trifluoromethyl)benzyl]-2,3,4,5-tetrahydro-8-methylaminomethyl-5-oxo-6-phenylpyrido[3,2-f][1,4]oxazepine] | 152 to 154
CN(C)Cc1cc(-c2ccccc2)c2c(n1)OCCN(Cc1cc(C(F)(F)F)cc(C(F)(F)F)c1)C2=O [Example 45, 4-[3,5-Bis(trifluoromethyl)benzyl]-8-dimethylaminomethyl-2,3,4,5-tetrahydro-5-oxo-6-phenylpyrido[3,2-f][1,4]oxazepine] | 186 to 188
O=C1c2c(-c3ccccc3)cc(CNC3CC3)nc2OCCN1Cc1cc(C(F)(F)F)cc(C(F)(F)F)c1 [Example 46, 4-[3,5-Bis(trifluoromethyl)benzyl]-8-cyclopropylaminomethyl-2,3,4,5-tetrahydro-5-oxo-6-phenylpyrido[3,2-f][1,4]oxazepine] | 129 to 131
CC(=O)NCc1cc(-c2ccccc2)c2c(n1)OCCN(Cc1cc(C(F)(F)F)cc(C(F)(F)F)c1)C2=O [Example 48, 8-Acetylaminomethyl-4-[3,5-bis(trifluoromethyl)benzyl]-2,3,4,5-tetrahydro-5-oxo-6-phenylpyrido[3,2-f][1,4]oxazepine] | 223 to 224
CS(=O)(=O)NCc1cc(-c2ccccc2)c2c(n1)OCCN(Cc1cc(C(F)(F)F)cc(C(F)(F)F)c1)C2=O [Example 49, 4-[3,5-Bis(trifluoromethyl)benzyl]-2,3,4,5-tetrahydro-8-methanesulfonylaminomethyl-5-oxo-6-phenylpyrido[3,2-f][1,4]oxazepine] | 194 to 195
